Values belong to the compound of their own block, whether it stands above or below them.
Experiments:
[1] = Maillard reaction with glycine; assay type: physicochemical; conditions: for Coloration degree (480 nm): 1% glycine, 10% saccharide, 50 mM phosphate buffer pH 7.0, 100° C. for 90 min, absorbance in 1-cm cell; for Coloration degree relative to corresponding material maltooligosaccharide: Maillard reaction, 480 nm
Method: As a control, maltotriose, maltotetraose, maltopentaose, maltohexaose and maltoheptaose as a material for the saccharide preparations were similarly treated as above, and measured their absorbances were measured at a wave length of 480 nm.

[2] = tested on: non-reducing saccharide-forming enzyme; assay type: biochemical, Rhizobium sp. M-11; conditions: for Percentage of newly-formed saccharide (P I to P V) in reaction product / Formation of novel saccharide from substrate: 20% substrate, 40° C., pH 7.0, 48 hours; for Percentage of newly-formed saccharide (P I to P V) in reaction product: 2 units per g substrate, HPLC; for Percentage of remaining substrate in reaction product: non-reducing saccharide-forming enzyme, 48 h, pH 7
Method: An aqueous solution containing 20% glucose, maltose, maltotriose, maltotetraose, maltopentaose, maltohexaose or maltoheptaose as a substrate was prepared, and mixed with 2 units per g substrate, d.s.b., of the purified enzyme preparation obtained in Experiment 2, and the resultant mixture was subjected to an enzymatic reaction at 40° C. and pH 7.0 for 48 hours. The reaction mixture was desalted and analyzed on high-performance liquid chromatography (HPLC) using "Wakobeads WB-T-330 column", a product of Wako Pure Chemical Industries Ltd., Tokyo, Japan. The HPLC procedure was conducted at an ambient temperature and a flow rate of 0.5 ml/min of water as an eluent, and "RI-8012", a differential refractometer commercialized by Tosho Corporation, Tokyo, Japan, was used for analyzing reaction products.

[3] = molecular target: T1, α-glucosidase specimen derived from rice (Oryza sativa subsp. japonica, UniProt Q653V7); test: Hydrolysis by α-glucosidase; assay type: biochemical; conditions: 50 mM acetate buffer pH 4.0, 37° C., 18 hours
T1 construct: purchased Sigma Chemical Company, St. Louis, USA; host or cells: rice
Method: (§1) The enzymatic reaction with the α-amylase was as follows: Dissolving 10 mg of a substrate in one ml of 50 mM phosphate buffer (pH 6.9), mixing the resultant solution with one unit of the α-amylase, and incubating the resultant mixture at 37° C. for 18 hours. The enzymatic reaction with the α-glucosidase was conducted under the same conditions as in the case of α-amylase except that 50 mM acetate buffer (pH 4.0) was used as a buffer. The enzymatic reaction with the rat intestinal acetone powder was carried out under the same conditions as in the case of α-amylase except that 50 mM maleate buffer (pH 6.0) was used as a buffer.

β-amylase = β-amylase (Glycine max, UniProt P10538); test: Hydrolysis by β-amylase; assay type: biochemical; conditions: similarly as with glucoamylase
[4] = Reducing power by Somogyi-Nelson's method expressed as DE; assay type: physicochemical; conditions: for DE: high-purity saccharide preparations of Experiment 4
Method: The reducing powders of these novel saccharides were determined on the Somogyi-Nelson's method and expressed by DE (dextrose equivalent).

[5] = molecular target: T2, α-amylase specimen derived from pig pancreas (Sus scrofa, UniProt P00690); test: Hydrolysis by α-amylase; assay type: biochemical; design: Saccharide composition of hydrolysate: P I / Saccharide composition of hydrolysate: P II / Saccharide composition of hydrolysate: G3 (maltotriose) / Saccharide composition of hydrolysate: G2 (maltose) / Saccharide composition of hydrolysate: G1 (glucose): unit not given here; conditions: for Hydrolysis by α-amylase: conclusion from Table 6; for Saccharide composition of hydrolysate: G1 (glucose) / Saccharide composition of hydrolysate: G2 (maltose) / Saccharide composition of hydrolysate: G3 (maltotriose) / Saccharide composition of hydrolysate: P I / Saccharide composition of hydrolysate: P II: α-amylase, 10 mg/ml, pH 6.9, 37° C., 18 hours, HPLC
T2 construct: purchased Sigma Chemical Company, St. Louis, USA; host or cells: pig pancreas
T2 sequence (P00690 16-511): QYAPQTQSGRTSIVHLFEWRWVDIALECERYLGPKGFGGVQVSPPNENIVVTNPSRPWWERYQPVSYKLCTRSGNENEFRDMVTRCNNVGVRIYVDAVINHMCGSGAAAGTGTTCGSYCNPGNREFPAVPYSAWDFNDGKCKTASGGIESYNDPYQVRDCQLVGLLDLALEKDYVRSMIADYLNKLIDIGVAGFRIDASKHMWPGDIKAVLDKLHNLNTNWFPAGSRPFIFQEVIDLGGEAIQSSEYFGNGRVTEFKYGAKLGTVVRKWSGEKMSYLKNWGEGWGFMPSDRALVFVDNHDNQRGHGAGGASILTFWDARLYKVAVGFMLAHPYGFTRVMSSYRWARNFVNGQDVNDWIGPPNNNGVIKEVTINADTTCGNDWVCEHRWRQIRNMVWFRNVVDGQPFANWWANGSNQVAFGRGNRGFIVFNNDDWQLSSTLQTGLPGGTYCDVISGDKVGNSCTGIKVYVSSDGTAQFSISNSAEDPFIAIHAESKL
Method: as §1

[6] = tested on: 7-week old dd-strain mice; test: Acute toxicity test, oral; assay type: in vivo; conditions: oral, highest possible doses
[7] = tested on: rat intestinal acetone powder; test: Hydrolysis by rat intestinal acetone powder; assay type: in vitro ADME; conditions: 50 mM maleate buffer pH 6.0, 37° C., 18 hours
Method: as §1

glucoamylase = test: Enzymatic hydrolysis by glucoamylase; assay type: biochemical; conditions: for Glucose / Trehalose: 50 mg in 1 ml 50 mM acetate buffer pH 4.5, one unit glucoamylase, 40° C., 6 hours, HPLC; for Molecular ratio (Glucose/Trehalose): glucoamylase hydrolysate
Method: Fifty mg aliquots of non-reducing saccharides P I, P II, P III, P IV and P V in Experiment 4 were respectively dissolved in one ml of 50 mM acetate buffer (pH 4.5), admixed with one unit of glucoamylase commercialized by Seikagaku-Kogyo Co., Ltd., Tokyo, Japan, to effect enzymatic hydrolysis at 40° C. for 6 hours. The only saccharides detected in every resultant mixture on HPLC analysis were glucose and trehalose.

T1 sequence (Q653V7 34-885): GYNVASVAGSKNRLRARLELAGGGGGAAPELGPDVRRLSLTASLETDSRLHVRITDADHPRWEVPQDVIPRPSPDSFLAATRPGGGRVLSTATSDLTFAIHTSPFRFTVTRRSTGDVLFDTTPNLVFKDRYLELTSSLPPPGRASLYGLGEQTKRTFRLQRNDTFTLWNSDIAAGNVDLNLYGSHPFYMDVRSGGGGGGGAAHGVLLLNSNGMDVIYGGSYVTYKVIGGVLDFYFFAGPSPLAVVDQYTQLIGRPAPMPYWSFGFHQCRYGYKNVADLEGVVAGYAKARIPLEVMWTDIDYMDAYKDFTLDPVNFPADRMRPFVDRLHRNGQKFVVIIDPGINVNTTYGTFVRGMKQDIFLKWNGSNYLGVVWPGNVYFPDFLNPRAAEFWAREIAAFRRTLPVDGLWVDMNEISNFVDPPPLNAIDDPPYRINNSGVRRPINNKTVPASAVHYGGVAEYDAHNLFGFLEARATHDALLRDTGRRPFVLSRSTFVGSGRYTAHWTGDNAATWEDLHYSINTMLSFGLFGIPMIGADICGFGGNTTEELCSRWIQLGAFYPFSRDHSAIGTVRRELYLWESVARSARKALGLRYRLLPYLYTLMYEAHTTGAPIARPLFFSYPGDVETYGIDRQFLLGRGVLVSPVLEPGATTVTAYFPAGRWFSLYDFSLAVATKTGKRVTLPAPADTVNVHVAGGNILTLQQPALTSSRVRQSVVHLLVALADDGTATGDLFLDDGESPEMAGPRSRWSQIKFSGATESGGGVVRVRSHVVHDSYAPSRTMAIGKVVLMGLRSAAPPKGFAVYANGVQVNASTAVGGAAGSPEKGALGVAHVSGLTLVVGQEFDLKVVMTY
Sequence of β-amylase (P10538 whole entry, species assumed): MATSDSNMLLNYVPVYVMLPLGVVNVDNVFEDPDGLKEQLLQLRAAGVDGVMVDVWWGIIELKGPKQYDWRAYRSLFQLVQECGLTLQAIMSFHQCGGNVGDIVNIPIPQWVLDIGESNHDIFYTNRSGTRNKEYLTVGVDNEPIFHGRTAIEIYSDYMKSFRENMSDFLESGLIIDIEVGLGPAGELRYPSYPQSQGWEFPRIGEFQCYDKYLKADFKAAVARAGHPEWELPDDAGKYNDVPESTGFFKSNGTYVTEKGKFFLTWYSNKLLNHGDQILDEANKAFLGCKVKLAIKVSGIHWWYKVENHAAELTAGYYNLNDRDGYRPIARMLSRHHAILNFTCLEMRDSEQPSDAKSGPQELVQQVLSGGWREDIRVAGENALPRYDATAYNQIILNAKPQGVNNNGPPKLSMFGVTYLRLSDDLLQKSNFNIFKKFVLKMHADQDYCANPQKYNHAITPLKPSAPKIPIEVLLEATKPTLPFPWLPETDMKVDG

Structure (SMILES): OC[C@H]1O[C@H](O[C@H]2O[C@H](CO)[C@@H](O[C@H]3O[C@H](CO)[C@@H](O[C@H]4O[C@H](CO)[C@@H](O[C@H]5O[C@H](CO)[C@@H](O)[C@H](O)[C@H]5O)[C@H](O)[C@H]4O)[C@H](O)[C@H]3O)[C@H](O)[C@H]2O)[C@H](O)[C@@H](O)[C@@H]1O [P III, α-maltotriosyl trehalose]
Coloration degree (480 nm) [1]: 0.012
Coloration degree relative to corresponding material maltooligosaccharide [1]: 3-6%
Saccharide composition of hydrolysate with α-glucosidase: Glucose [3]: 61.7%
Saccharide composition of hydrolysate with α-glucosidase: Other saccharides [3]: 0.2%
Saccharide composition of hydrolysate with α-glucosidase: Trehalose [3]: 38.1%
Hydrolysis by β-amylase (β-amylase): one mole of maltose and one mole of P I
DE [4]: 0.10
Hydrolysis by α-amylase [5]: hydrolyzed by α-amylase into lower molecular weight oligosaccharides
Saccharide composition of hydrolysate: G1 (glucose) [5]: 1.2
Saccharide composition of hydrolysate: G2 (maltose) [5]: 33.0
Saccharide composition of hydrolysate: G3 (maltotriose) [5]: 0
Saccharide composition of hydrolysate: P I [5]: 61.0
Saccharide composition of hydrolysate: P II [5]: 4.8
Death of mice [6]: no mouse died
Saccharide composition of hydrolysate with rat intestinal acetone powder: Glucose [7]: 62.0%
Saccharide composition of hydrolysate with rat intestinal acetone powder: Other saccharides [7]: 0.4%
Saccharide composition of hydrolysate with rat intestinal acetone powder: Trehalose [7]: 37.6%
Glucose (glucoamylase): 61.4%
Trehalose (glucoamylase): 38.6%
Molecular ratio (Glucose/Trehalose) (glucoamylase): 3.02

Structure (SMILES): OC[C@H]1OC(O)[C@H](O)[C@@H](O)[C@@H]1O (stereo partly shown) [Glucose]
Formation of novel saccharide from substrate [2]: no novel saccharide was formed
Percentage of remaining substrate in reaction product [2]: 100.0%

Structure (SMILES): OC[C@H]1O[C@H](O[C@H]2O[C@H](CO)[C@@H](O[C@H]3O[C@H](CO)[C@@H](O[C@H]4O[C@H](CO)[C@@H](O)[C@H](O)[C@H]4O)[C@H](O)[C@H]3O)[C@H](O)[C@H]2O)[C@H](O)[C@@H](O)[C@@H]1O [P II, α-maltosyl trehalose]
Coloration degree (480 nm) [1]: 0.018
Coloration degree relative to corresponding material maltooligosaccharide [1]: 3-6%
Saccharide composition of hydrolysate with α-glucosidase: Glucose [3]: 52.1%
Saccharide composition of hydrolysate with α-glucosidase: Other saccharides [3]: 0.3%
Saccharide composition of hydrolysate with α-glucosidase: Trehalose [3]: 47.6%
Hydrolysis by β-amylase (β-amylase): not hydrolyzed
DE [4]: 0.35
Hydrolysis by α-amylase [5]: not substantially hydrolyzed
Saccharide composition of hydrolysate: G1 (glucose) [5]: 0
Saccharide composition of hydrolysate: G2 (maltose) [5]: 0.8
Saccharide composition of hydrolysate: G3 (maltotriose) [5]: 0.4
Saccharide composition of hydrolysate: P I [5]: 0
Saccharide composition of hydrolysate: P II [5]: 98.8
Death of mice [6]: no mouse died
Saccharide composition of hydrolysate with rat intestinal acetone powder: Glucose [7]: 52.5%
Saccharide composition of hydrolysate with rat intestinal acetone powder: Other saccharides [7]: 0.4%
Saccharide composition of hydrolysate with rat intestinal acetone powder: Trehalose [7]: 47.1%
Glucose (glucoamylase): 52.0%
Trehalose (glucoamylase): 48.0%
Molecular ratio (Glucose/Trehalose) (glucoamylase): 2.06

Structure (SMILES): OC[C@H]1O[C@H](O[C@H]2O[C@H](CO)[C@@H](O[C@H]3O[C@H](CO)[C@@H](O[C@H]4O[C@H](CO)[C@@H](O[C@H]5O[C@H](CO)[C@@H](O)[C@H](O)[C@H]5O)[C@H](O)[C@H]4O)[C@H](O)[C@H]3O)[C@H](O)[C@H]2O)[C@H](O)[C@@H](O)[C@@H]1O [Example A-5]
DE of product ([4]; products of Examples A): lower than 0.2

Second part, the compound after the results:

Coloration degree (480 nm) [1]: 0.318
Percentage of newly-formed saccharide (P I to P V) in reaction product [2]: 93.5%
Percentage of remaining substrate in reaction product [2]: 6.5%
Structure (SMILES): OC[C@H]1O[C@H](O[C@H]2[C@H](O)[C@@H](O)[C@@H](O[C@H]3[C@H](O)[C@@H](O)[C@@H](O[C@H]4[C@H](O)[C@@H](O)[C@@H](O[C@H]5[C@H](O)[C@@H](O)[C@@H](O[C@H]6[C@H](O)[C@@H](O)C(O)O[C@@H]6CO)O[C@@H]5CO)O[C@@H]4CO)O[C@@H]3CO)O[C@@H]2CO)[C@H](O)[C@@H](O)[C@@H]1O (stereo partly shown) [Maltohexaose]

Coloration degree (480 nm) [1]: 0.271
Percentage of newly-formed saccharide (P I to P V) in reaction product [2]: 93.4%
Percentage of remaining substrate in reaction product [2]: 6.7%
Structure (SMILES): OC[C@H]1O[C@H](O[C@H]2[C@H](O)[C@@H](O)[C@@H](O[C@H]3[C@H](O)[C@@H](O)[C@@H](O[C@H]4[C@H](O)[C@@H](O)[C@@H](O[C@H]5[C@H](O)[C@@H](O)[C@@H](O[C@H]6[C@H](O)[C@@H](O)[C@@H](O[C@H]7[C@H](O)[C@@H](O)C(O)O[C@@H]7CO)O[C@@H]6CO)O[C@@H]5CO)O[C@@H]4CO)O[C@@H]3CO)O[C@@H]2CO)[C@H](O)[C@@H](O)[C@@H]1O (stereo partly shown) [Maltoheptaose]

Coloration degree (480 nm) [1]: 0.475
Percentage of newly-formed saccharide (P I to P V) in reaction product [2]: 85.6%
Percentage of remaining substrate in reaction product [2]: 14.4%
Structure (SMILES): OC[C@H]1O[C@H](O[C@H]2[C@H](O)[C@@H](O)[C@@H](O[C@H]3[C@H](O)[C@@H](O)[C@@H](O[C@H]4[C@H](O)[C@@H](O)C(O)O[C@@H]4CO)O[C@@H]3CO)O[C@@H]2CO)[C@H](O)[C@@H](O)[C@@H]1O (stereo partly shown) [Maltotetraose]

Formation of novel saccharide from substrate [2]: no novel saccharide was formed
Percentage of remaining substrate in reaction product [2]: 100.0%
Structure (SMILES): OC[C@H]1O[C@H](O[C@H]2[C@H](O)[C@@H](O)C(O)O[C@@H]2CO)[C@H](O)[C@@H](O)[C@@H]1O (mixture of isomers) [Maltose]

Coloration degree (480 nm) [1]: 0.623
Percentage of newly-formed saccharide (P I to P V) in reaction product [2]: 35.0%
Percentage of remaining substrate in reaction product [2]: 65.0%
Structure (SMILES): OC[C@H]1O[C@H](O[C@H]2[C@H](O)[C@@H](O)[C@@H](O[C@H]3[C@H](O)[C@@H](O)C(O)O[C@@H]3CO)O[C@@H]2CO)[C@H](O)[C@@H](O)[C@@H]1O (stereo partly shown) [Maltotriose]

Coloration degree (480 nm) [1]: 0.369
Percentage of newly-formed saccharide (P I to P V) in reaction product [2]: 92.7%
Percentage of remaining substrate in reaction product [2]: 7.3%
Initial reducing power that diminishes by the enzymatic reaction ([2]; substrate of the present enzyme): about 93%
Structure (SMILES): OC[C@H]1O[C@H](O[C@H]2[C@H](O)[C@@H](O)[C@@H](O[C@H]3[C@H](O)[C@@H](O)[C@@H](O[C@H]4[C@H](O)[C@@H](O)[C@@H](O[C@H]5[C@H](O)[C@@H](O)C(O)O[C@@H]5CO)O[C@@H]4CO)O[C@@H]3CO)O[C@@H]2CO)[C@H](O)[C@@H](O)[C@@H]1O (stereo partly shown) [Maltopentaose]

From patent US5922580A, “Non-reducing saccharide-forming enzyme, its preparation and uses” (priority 1992, dated 1999)
